According to ChEMBL document CHEMBL1139189, “Preparation of novel antibacterial agents. Replacement of the central aromatic ring with heterocycles” (2007):
In brackets after ≈: the same amount, converted by molar mass. One block for each molecule: values may come before it.

Experiments:
Assay type in all cases: functional
Staphylococcus aureus [1] = test: Antibacterial activity against Staphylococcus aureus UC 9218 in presence of 10% human serum
Staphylococcus aureus [2] = test: Antibacterial activity against Staphylococcus aureus UC 9218
Haemophilus influenzae = test: Antibacterial activity against Haemophilus influenzae 30063
[3] = tested on: Staphylococcus epidermidis; test: Antibacterial activity against Staphylococcus epidermidis UC 12084
Enterococcus faecalis = test: Antibacterial activity against Enterococcus faecalis UC 9217
Streptococcus pneumoniae = test: Antibacterial activity against Streptococcus pneumoniae UC 9912
Staphylococcus aureus [4] = test: Antibacterial activity against Staphylococcus aureus UC 9218 in presence of 5% human serum

- MIC (Staphylococcus aureus [1]): 8 mg/L
- MIC (Staphylococcus aureus [2]): 0.25 mg/L (≈ 0.75 µM)
SMILES: N#Cc1ccc(NC(=O)c2cc(-c3ccccc3)on2)c(C(=O)O)c1

- MIC (Staphylococcus aureus [1]): > 128 mg/L
- MIC (Staphylococcus aureus [2]): 64 mg/L (≈ 192 µM)
SMILES: N#Cc1ccc(NC(=O)c2coc(-c3ccccc3)n2)c(C(=O)O)c1

- MIC (Staphylococcus aureus [1]): 32 mg/L
- MIC (Staphylococcus aureus [2]): 8 mg/L (≈ 22.9 µM)
SMILES: N#Cc1ccc(NC(=O)c2nc(-c3ccccc3)cs2)c(C(=O)O)c1

- MIC (Staphylococcus aureus [1]): 8 mg/L
- MIC (Staphylococcus aureus [2]): 0.5 mg/L (≈ 1.5 µM)
SMILES: N#Cc1ccc(NC(=O)c2ncc(-c3ccccc3)o2)c(C(=O)O)c1

- MIC (Staphylococcus aureus [1]): 8 mg/L
- MIC (Staphylococcus aureus [2]): 0.5 mg/L (≈ 1.5 µM)
SMILES: N#Cc1ccc(NC(=O)c2cc(-c3ccccc3)no2)c(C(=O)O)c1

- MIC (Staphylococcus aureus [1]): 32 mg/L
- MIC (Staphylococcus aureus [2]): 4 mg/L (≈ 12 µM)
SMILES: N#Cc1ccc(NC(=O)c2noc(-c3ccccc3)n2)c(C(=O)O)c1

- MIC (Staphylococcus aureus [1]): > 128 mg/L
- MIC (Staphylococcus aureus [2]): > 128 mg/L
SMILES: N#Cc1ccc(NC(=O)c2cc3cc(-c4ccccc4)oc3cn2)c(C(=O)O)c1

- MIC (Staphylococcus aureus [1]): 4 mg/L
- MIC (Staphylococcus aureus [2]): 0.125 mg/L (≈ 0.329 µM)
- MIC [3]: 0.125 mg/L (≈ 0.329 µM)
- MIC (Enterococcus faecalis): > 128 mg/L
- MIC (Streptococcus pneumoniae): > 128 mg/L
SMILES: N#Cc1ccc(NC(=O)c2cc(SCc3ccccc3)on2)c(C(=O)O)c1

- MIC (Staphylococcus aureus [1]): 16 mg/L
- MIC (Staphylococcus aureus [2]): 1 mg/L (≈ 2.86 µM)
SMILES: N#Cc1ccc(NC(=O)c2ncc(-c3ccccc3)s2)c(C(=O)O)c1

- MIC (Staphylococcus aureus [1]): 32 mg/L
- MIC (Staphylococcus aureus [2]): 0.5 mg/L (≈ 1.3 µM)
SMILES: N#Cc1ccc(NC(=O)c2nsc(-c3ccccc3)c2Cl)c(C(=O)O)c1

More lines, now with the values behind:

SMILES: CCCN(CCC)S(=O)(=O)c1ccc(C(=O)Oc2cc3ccccc3cc2C(=O)Oc2cc3ccccc3cc2C(=O)O)cc1
- MIC (Staphylococcus aureus [2]): 16 mg/L (≈ 25.6 µM)
- MIC (Haemophilus influenzae): > 128 mg/L
- MIC [3]: 16 mg/L (≈ 25.6 µM)
- MIC (Enterococcus faecalis): 32 mg/L (≈ 51.1 µM)
- MIC (Streptococcus pneumoniae): 8 mg/L (≈ 12.8 µM)

SMILES: CCOc1nc(SCc2ccccc2)ncc1C(=O)Nc1ccc(C#N)cc1C(=O)O
- MIC (Staphylococcus aureus [1]): > 128 mg/L
- MIC (Staphylococcus aureus [2]): 8 mg/L (≈ 18.4 µM)

SMILES: Cc1nn(-c2ccccc2)nc1C(=O)Nc1ccc(C#N)cc1C(=O)O
- MIC (Staphylococcus aureus [1]): > 128 mg/L
- MIC (Staphylococcus aureus [2]): 4 mg/L (≈ 11.5 µM)

SMILES: N#Cc1ccc(NC(=O)c2noc3ccccc23)c(C(=O)O)c1
- MIC (Staphylococcus aureus [1]): 16 mg/L
- MIC (Staphylococcus aureus [2]): 0.5 mg/L (≈ 1.63 µM)

SMILES: N#Cc1ccc(NC(=O)c2cc3cccnc3s2)c(C(=O)O)c1
- MIC (Staphylococcus aureus [1]): 32 mg/L
- MIC (Staphylococcus aureus [2]): 4 mg/L (≈ 12.4 µM)

SMILES: Cc1coc2cnc(C(=O)Nc3ccc(C#N)cc3C(=O)O)cc12
- MIC (Staphylococcus aureus [1]): 64 mg/L
- MIC (Staphylococcus aureus [2]): 16 mg/L (≈ 49.8 µM)

SMILES: O=C(Nc1ccc(Br)cc1C(=O)O)c1ccc(S(=O)(=O)N2CCc3cc(Cl)ccc32)cc1
- MIC (Staphylococcus aureus [2]): 0.5 mg/L (≈ 0.933 µM)
- MIC (Haemophilus influenzae): 128 mg/L (≈ 239 µM)
- MIC [3]: 4 mg/L (≈ 7.47 µM)
- MIC (Enterococcus faecalis): 32 mg/L (≈ 59.7 µM)
- MIC (Streptococcus pneumoniae): 4 mg/L (≈ 7.47 µM)
- MIC (Staphylococcus aureus [4]): > 128 mg/L

SMILES: N#Cc1ccc(NC(=O)c2cnccn2)c(C(=O)O)c1
- MIC (Staphylococcus aureus [1]): > 128 mg/L
- MIC (Staphylococcus aureus [2]): 128 mg/L (≈ 477 µM)

SMILES: N#Cc1ccc(NC(=O)c2cc3ccccc3[nH]2)c(C(=O)O)c1
- MIC (Staphylococcus aureus [1]): 32 mg/L
- MIC (Staphylococcus aureus [2]): 2 mg/L (≈ 6.55 µM)

SMILES: N#Cc1ccc(NC(=O)c2nc3ccccc3s2)c(C(=O)O)c1
- MIC (Staphylococcus aureus [1]): 8 mg/L
- MIC (Staphylococcus aureus [2]): 0.25 mg/L (≈ 0.773 µM)

SMILES: CCCC(CCC)NS(=O)(=O)c1ccc(C(=O)Nc2cc3ccccc3cc2C(=O)O)cc1
- MIC (Staphylococcus aureus [2]): 64 mg/L (≈ 137 µM)
- MIC (Haemophilus influenzae): > 128 mg/L
- MIC [3]: 16 mg/L (≈ 34.1 µM)
- MIC (Enterococcus faecalis): 128 mg/L (≈ 273 µM)
- MIC (Streptococcus pneumoniae): 64 mg/L (≈ 137 µM)
- MIC (Staphylococcus aureus [4]): > 128 mg/L

SMILES: N#Cc1ccc(NC(=O)c2cc3ccccc3o2)c(C(=O)O)c1
- MIC (Staphylococcus aureus [1]): 32 mg/L
- MIC (Staphylococcus aureus [2]): 2 mg/L (≈ 6.53 µM)

SMILES: CN[C@H](CC(C)C)C(=O)N[C@H]1C(=O)N[C@@H](CC(N)=O)C(=O)N[C@H]2C(=O)N[C@H]3C(=O)N[C@H](C(=O)N[C@H](C(=O)O)c4cc(O)cc(O)c4-c4cc3ccc4O)[C@H](O)c3ccc(c(Cl)c3)Oc3cc2cc(c3O[C@@H]2O[C@H](CO)[C@@H](O)[C@H](O)[C@H]2O[C@H]2C[C@](C)(N)[C@H](O)[C@H](C)O2)Oc2ccc(cc2Cl)[C@H]1O [VANCOMYCIN]
- MIC (Haemophilus influenzae): 0.015 mg/L (≈ 0.0104 µM)
- MIC (Enterococcus faecalis): 1 mg/L (≈ 0.69 µM)
- MIC (Streptococcus pneumoniae): 0.25 mg/L (≈ 0.173 µM)
